Measurements published in patent US20070043102A1, “Oral suspension of tegaserod” (priority 2003, published 2007).

Assay: Stability study of the oral suspensions (HPLC assay and degradation products)
Format: physicochemical
Procedure: The stability study is performed for maximum 3 days at the storage conditions of room temperature (about 20-25° C.) and/or 5° C. ( fridge). The start point (TO) is performed about 1 minute after preparation. Furthermore, a “24 hours” and “3 days” time point at room temperature and 5° C. is performed.
Analytical methods: For each time-point tested, the degradation products of Tegaserod by HPLC are evaluated. Analytical methods are based on Test Methods described below.
Procedure for assay determination: For each time-point, one tablet is crushed according to the above procedure. The crushed tablet is transferred quantitatively into a 100 ml amber glass volumetric flask. 50 ml of the beverage is carefully added and the suspension is shaken vigorously by hand a few time and allowed to stand for the storage time tested. The suspension is re-homogenized, by shaking by hand. For extraction, the flask is filled to the mark with methanol (about 50 ml) then shaken for 30 minutes under magnetic stirring, sonicated for 10 minutes and shaken for 30 minutes under magnetic stirring. An aliquot of the methanol solution is centrifuged. The clear supernatant of the above solution is used as the test solution and is analyzed by HPLC (Isocratic HPLC on reversed phase RP-8 with UV detection). The same procedure is carried out once for each beverage but without tablet powder and the resulting chromatograms are compared for new appearance of any peak.
Procedure for determination of degradation products: In order to enable to reach a sufficiently low limit to quantify the degradation products, the number of tablets to be crushed is increased. For each time-point, 6 tablets for 2 mg dosage strength (or 5 tablets for 6 mg dosage strength) are crushed according to the above procedure. The crushed tablet is transferred quantitatively into a 20 ml for 2 mg dosage strength (or 50 ml amber glass volumetric flask for 6 mg dosage strength). 10 ml for 2 mg dosage strength (or 25 ml for 6 mg dosage strength) of the beverage are added carefully. The suspension is shaken vigorously by hand a few time and is allowed to stand for the storage time tested. The suspension is re-homogenized by shaking by hand. For extraction, the flask is filled to the mark with acetonitrile and is shaken for 30 minutes under magnetic stirring, sonicated for 10 minutes and shaken for 30 minutes under magnetic stirring. An aliquot of the homogenized solution is centrifuged.
The clear supernatant of the above solution is used as the test solution in order to quantify using a gradient HPLC on reversed phase RP-8 with UV detection. The same procedure is carried out once for each beverage but without crushed tablet and the resulting chromatograms are compared and analyzed according to the scheme below.
Acceptance criteria: Tegaserod is assumed stable in the tested media if the following acceptance criteria are met for the time-points studied.

time stable (crushed tablet in apple juice, fridge (5° C.), 2 mg dosage strength): at least 24 hours
time stable (crushed tablet in apple juice, fridge (5° C.), 6 mg dosage strength): up to 3 days
time stable (crushed tablet in apple juice, room temperature): at least 1 hour
time stable (crushed tablet in orange juice, fridge (5° C.), 2 mg dosage strength): at least 24 hours
time stable (crushed tablet in orange juice, fridge (5° C.), 6 mg dosage strength): up to 3 days
time stable (crushed tablet in orange juice, room temperature): at least 1 hour
time stable (crushed tablet in water, fridge (5° C.), 2 mg dosage strength): at least 24 hours
time stable (crushed tablet in water, fridge (5° C.), 6 mg dosage strength): up to 3 days
time stable (crushed tablet in water, room temperature): at least 1 hour
SMILES: CCCCCNC(=N)NN=Cc1c[nH]c2ccc(OC)cc12 [Tegaserod, 3-(5-methoxy-1H-indol-3-yl-methylene)-N-pentylcarbazimidamide]
